Assay results taken from ChEMBL document CHEMBL6121014, “Novel α-mangostin derivatives as promising antiviral agents: Isolation, synthesis, and evaluation against chikungunya virus” (Eur J Med Chem, 2025).
Activity calls are given as the source filed them. No cut-off for these calls is given here.

Tests used:
[1] = test system: Vero; assay: (§1) Cytotoxicity against green monkey Vero cells assessed as reduction in cell viability at 24 to 48 hrs by MTT assay; format: toxicity, cell-based; parameters: Activity: concentration or dose not given beside the values; details: chlorocebus sabaeus, vero; time 24-48 hrs
[2] = test system: Chikungunya virus; assay: Antiviral activity against CHIKV infected in green monkey Vero cells assessed as inhibition of viral entry by entry assay; format: functional, organism-based
[3] = test system: Chikungunya virus; assay: Antiviral activity against CHIKV infected in green monkey Vero cells assessed as inhibition of infectious virus preincubated the cells for 45 mins followed by compound addition and measured after 1 to 6 hrs post infection by time of addition assay; format: functional, organism-based; details: time 1-6 hrs
[4] = test system: Chikungunya virus; assay: Antiviral activity against CHIKV infected in green monkey Vero cells assessed as inhibition of infectious virus preincubated the cells for 45 mins followed by compound addition and measured after 5 to 6 hrs post infection by time of addition assay; format: functional; parameters: scale not given: the % may be the effect or the level left; details: time 5-6 hrs
[5] = Selectivity ratio of IC50 for antiviral activity against CHIKV infected in green monkey Vero cells assessed as reduction in viral titer pretreated the cells with viral infection for 1 hr followed by compound addition and measured after 24 hrs by Foci forming unit assay to CC50 for cytotoxicity against green monkey Vero cells; format: toxicity, cell-based
[6] = test system: Chikungunya virus; assay: Antiviral activity against CHIKV infected in green monkey Vero cells assessed as inhibition of viral post entry by entry bypass assay; format: functional, organism-based
[7] = test system: Chikungunya virus; assay: Antiviral activity against CHIKV infected in green monkey Vero cells assessed as reduction in viral titer pretreated the cells with viral infection for 1 hr followed by compound addition and measured after 24 hrs by Foci forming unit assay; format: functional, organism-based
[8] = as §1; format: toxicity, cell-based; parameters: Activity: concentration or dose not given beside the values; details: chlorocebus sabaeus, Vero cells; time 24-48 hrs
[9] = test system: Chikungunya virus; assay: Antiviral activity against CHIKV infected in green monkey Vero cells assessed as reduction in viral titer at 50 uM pretreated with compound for 24 hrs followed by viral infection by foci forming unit assay (reference value: 8.48 log10FFU/ml); format: functional
[10] = test system: Chikungunya virus; assay: Antiviral activity against CHIKV infected in green monkey Vero cells assessed as reduction in viral titer at 25 uM pretreated with compound for 24 hrs followed by viral infection by foci forming unit assay (reference value: 8.48 log10FFU/ml); format: functional
[11] = test system: Chikungunya virus; assay: Antiviral activity against CHIKV infected in green monkey Vero cells assessed as reduction in viral titer pretreated with compound for 24 hrs followed by viral infection by Foci forming unit assay; format: functional, organism-based
[12] = test system: Chikungunya virus; assay: Antiviral activity against CHIKV infected in green monkey Vero cells assessed as reduction in viral titer at 12.5 to 50 uM pretreated the cells with viral infection for 1 hr followed by compound addition and measured after 24 hrs by Foci forming unit assay (reference value: 8.55 log10FFU/ml); format: functional; details: dose 12.5-50 µM
[13] = test system: Chikungunya virus; assay: Antiviral activity against CHIKV infected in green monkey Vero cells assessed as reduction in viral titer at 25 uM pretreated the cells with viral infection for 1 hr followed by compound addition and measured after 24 hrs by Foci forming unit assay (reference value: 8.55 log10FFU/ml); format: functional
[14] = test system: Chikungunya virus; assay: Antiviral activity against CHIKV infected in green monkey Vero cells assessed as reduction in viral titer at 6.25 uM pretreated with compound for 24 hrs followed by viral infection by Foci forming unit assay (reference value: 8.81 log10FFU/ml); format: functional, organism-based
[15] = test system: Chikungunya virus; assay: Antiviral activity against CHIKV infected in green monkey Vero cells assessed as reduction in viral titer at 50 uM pretreated with compound for 24 hrs followed by viral infection by Foci forming unit assay (reference value: 8.81 log10FFU/ml); format: functional
[16] = test system: Chikungunya virus; assay: Antiviral activity against CHIKV infected in green monkey Vero cells assessed as reduction in viral titer at 6.25 uM pretreated with compound for 24 hrs followed by viral infection by Foci forming unit assay (reference value: 8.55 log10FFU/ml); format: functional

## COc1c(OCc2cn(-c3cccc(F)c3F)nn2)cc2oc3cc4c(c(O)c3c(=O)c2c1CC=C(C)C)C=CC(C)(C)O4
[1]
  Activity: > 90%

## COc1c(OCc2cn(-c3ccc(Cl)cc3)nn2)cc2oc3cc4c(c(O)c3c(=O)c2c1CC=C(C)C)C=CC(C)(C)O4
[2]
  Activity: Active
[3]
  Activity: Active
[4]
  Activity: >90%
[5]
  selectivity ratio at 24 h: 63.1
[6]
  Activity: Active
[7]
  IC50: 0.947 µM
[1]
  Activity: > 90%
[8]
  CC50: 59.7 µM

## COc1c(OCc2cn(-c3cc(C)ccc3C)nn2)cc2oc3cc4c(c(O)c3c(=O)c2c1CC=C(C)C)C=CC(C)(C)O4
[1]
  Activity: > 90%

## COc1c(OCC(=O)N2CCN(S(=O)(=O)c3ccc(F)cc3)CC2)cc2oc3cc4c(c(O)c3c(=O)c2c1CC=C(C)C)C=CC(C)(C)O4
[9]
  Activity: 7.13 log10FFU/ml
[10]
  Activity: 7.21 log10FFU/ml
[5]
  selectivity ratio at 24 h: 7.3
[7]
  IC50: 26.2 µM
[1]
  Activity: > 90%
[8]
  CC50: 191 µM
[11]
  IC50: 7.71 µM
[12]
  Activity: 7.37 log10FFU/ml

## O[C@H]1[C@H](O)[C@@H](O)[C@H](O)[C@@H](O)[C@H]1O [INOSITOL]
[1]
  Activity: > 90%

## COc1c(OCc2cn(-c3ccc(C)c(C)c3)nn2)cc2oc3cc4c(c(O)c3c(=O)c2c1CC=C(C)C)C=CC(C)(C)O4
[1]
  Activity: > 90%

## COc1c(OCC#Cc2ccc(Cl)cc2)cc2oc3cc4c(c(O)c3c(=O)c2c1CC=C(C)C)C=CC(C)(C)O4
[1]
  Activity: > 90%

## COc1c(OCC#Cc2ccccc2)cc2oc3cc4c(c(O)c3c(=O)c2c1CC=C(C)C)C=CC(C)(C)O4
[1]
  Activity: > 90%

## COc1c(OCC(=O)N2CCN(S(=O)(=O)c3ccc(Cl)cc3)CC2)cc2oc3cc4c(c(O)c3c(=O)c2c1CC=C(C)C)C=CC(C)(C)O4
[5]
  selectivity ratio at 24 h: 14.3
[7]
  IC50: 11.2 µM
[1]
  Activity: > 90%
[8]
  CC50: 160 µM
[13]
  Activity: 7.39 log10FFU/ml

## Oc1cc(O)c2c(c1)O[C@@H](c1ccc(O)c(O)c1)[C@@H](O)C2 [(+)-EPICATECHIN]
[14]
  Activity: Active
[15]
  Activity: 7.45 log10FFU/ml
[5]
  selectivity ratio at 24 h: 23.8
[7]
  IC50: 8.65 µM
[1]
  Activity: > 90%
[8]
  CC50: 206 µM
[12]
  Activity: ~7.4 log10FFU/ml

## COc1c(OCC#Cc2cccc(C(F)(F)F)c2)cc2oc3cc4c(c(O)c3c(=O)c2c1CC=C(C)C)C=CC(C)(C)O4
[1]
  Activity: > 90%

## COc1c(OCc2cn(-c3ccc(Br)cc3)nn2)cc2oc3cc4c(c(O)c3c(=O)c2c1CC=C(C)C)C=CC(C)(C)O4
[1]
  Activity: < 90%

## COc1c(OCc2cn(-c3cccc(C)c3)nn2)cc2oc3cc4c(c(O)c3c(=O)c2c1CC=C(C)C)C=CC(C)(C)O4
[1]
  Activity: > 90%

## C#CCOc1cc2oc3cc4c(c(O)c3c(=O)c2c(CC=C(C)C)c1OC)C=CC(C)(C)O4
[1]
  Activity: > 90%

## COc1c(OCc2cn(-c3cccc(C(F)(F)F)c3)nn2)cc2oc3cc4c(c(O)c3c(=O)c2c1CC=C(C)C)C=CC(C)(C)O4
[1]
  Activity: > 90%

## COc1c(OCC#Cc2ccc(I)cc2)cc2oc3cc4c(c(O)c3c(=O)c2c1CC=C(C)C)C=CC(C)(C)O4
[1]
  Activity: > 90%

## CC(C)=CCc1c(O)c(CC=C(C)C)c2oc3c(O)ccc(O)c3c(=O)c2c1O [GARTANIN]
[5]
  selectivity ratio at 24 h: 2.07
[7]
  IC50: 3.73 µM
[1]
  Activity: > 90%
[8]
  CC50: 7.71 µM
[16]
  Activity: 7.42 log10FFU/ml

## COc1c(OCc2cn(-c3ccccc3)nn2)cc2oc3cc4c(c(O)c3c(=O)c2c1CC=C(C)C)C=CC(C)(C)O4
[1]
  Activity: > 90%

## COc1c(OCC(=O)N2CCN(S(=O)(=O)c3ccc(Br)cc3)CC2)cc2oc3cc4c(c(O)c3c(=O)c2c1CC=C(C)C)C=CC(C)(C)O4
[1]
  Activity: > 90%
